Article PMC7456477, “Pharmacokinetic Study of Thirteen Ingredients after the Oral Administration of Flos Chrysanthemi Extract in Rats by UPLC-MS/MS” (BioMed Research International, 2020)

Tests used:
[1] = Pharmacokinetic study in rat plasma after oral administration of Flos Chrysanthemi extract (UPLC-MS/MS); format: in vivo, Sprague-Dawley rats; settings: rats, oral Flos Chrysanthemi extract 10 g/kg; for AUC(0-inf) / Cmax / Tmax / half-life / AUC / k el: male, Sprague-Dawley, rat; for AUC: read-out: AUC(0 − tn); for k el: read-out: Ke (converted); for Detection in plasma over the sampling time: result in words
Protocol: Six male Sprague-Dawley rats (250 ± 5 g) were purchased from Huafukang Bioscience Co., Inc. (Beijing, China). The rats were adapted to the facility for a week. Before the experiments, rats were fasted for 12 h, although drinking water was readily accessible. Flos Chrysanthemi extract was dissolved in CMC-Na aqueous solution and orally administered to the animals once at 10 g/kg. Blood samples (220 μL) were taken from the orbital venous plexus of rats at 0, 0.03, 0.08, 0.17, 0.25, 0.5, 1, 2, 4, 6, 8, 10, 12, and 24 h after extract administration. Blood samples were promptly centrifuged at 6000 rpm for 10 min, and plasma samples were collected. The obtained plasma was stored at -80°C until analysis. “Drug and Statistics 3.0” software (Medical College of Wannan, China) was used to calculate pharmacokinetic parameters. The animal protocol was approved by the Animal Ethics Committee of Tianjin University of Traditional Chinese Medicine (TCM-LAEC20190056).
Plasma samples from rats orally administered with Flos Chrysanthemi extract (10.0 g/kg) were analysed with UPLC-MS/MS. Plasma concentration-time curves are shown in Figure 3, and the primary pharmacokinetic parameters of each analyte are summarized in Table 6.

[2] = Stability of analytes in rat plasma (QC samples under four storage conditions); format: in vitro ADME; settings: n = 6
Protocol: To study the stability of all compounds in rat plasma, low, medium, and high concentrations of QC samples were tested under the following test conditions: stored at an autosampler for 12 hours, stored at room temperature for 6 hours, put through three freeze/thaw cycles, and stored at -80°C for 14 days. Three QC concentrations were tested for each of the above conditions.
The stability of all 13 analytes during sample collection and processing was evaluated with the various storage conditions being tested on spiked plasma samples at three QC concentrations.

[3] = spiked concentration 1000 ng/mL
[4] = spiked concentration 4000 ng/mL

Row | Structure (SMILES) | AUC(0-inf) ([1]; plasma, n = 6) | Cmax ([1]; plasma, n = 6) | Tmax ([1]; plasma, n = 6) | half-life ([1]; plasma, n = 6) | AUC ([1]; plasma, n = 6) | k el ([1]; plasma, n = 6) | Measured concentration, -80°C for 14 days ([2]; spiked concentration 5 ng/mL) | Measured concentration, Autosampler for 12 h ([2]; spiked concentration 5 ng/mL) | Measured concentration, Room temperature for 6 h ([2]; spiked concentration 5 ng/mL) | Measured concentration, Three freeze-thaw cycles ([2]; spiked concentration 5 ng/mL) | Measured concentration, -80°C for 14 days ([2]; spiked concentration 50 ng/mL) | Measured concentration, Autosampler for 12 h ([2]; spiked concentration 50 ng/mL) | Measured concentration, Room temperature for 6 h ([2]; spiked concentration 50 ng/mL) | Measured concentration, Three freeze-thaw cycles ([2]; spiked concentration 50 ng/mL) | Measured concentration, -80°C for 14 days [2, 3] | Measured concentration, Autosampler for 12 h [2, 3] | Measured concentration, Room temperature for 6 h [2, 3] | Measured concentration, Three freeze-thaw cycles [2, 3] | also measured
1 | O=c1cc(-c2ccc(O)cc2)oc2cc(O)cc(O)c12 [Apigenin] | 3090 ± 447 ng·h/mL | 302 ± 87.1 ng/mL | 30 min | 667 ± 426 min | 2900 ± 251 ng·h/mL | 2.5e-05 s⁻¹ | 5.2 ± 0.1 ng/mL | 5.4 ± 0.2 ng/mL | 4.9 ± 0.1 ng/mL | 5.7 ± 0.1 ng/mL | 49.3 ± 1.9 ng/mL | 45.8 ± 1.3 ng/mL | 49.3 ± 1.1 ng/mL | 50.5 ± 0.4 ng/mL | 1063.8 ± 62.8 ng/mL | 987.0 ± 11.4 ng/mL | 1112.4 ± 11.7 ng/mL | 1086.4 ± 17.6 ng/mL | 
2 | O=c1cc(-c2ccc(O)c(O)c2)oc2cc(O[C@@H]3O[C@H](CO)[C@@H](O)[C@H](O)[C@H]3O)cc(O)c12 [Cynaroside] | 19100 ± 20000 ng·h/mL | 2550 ± 1120 ng/mL | 383 ± 228 min | 301 ± 266 min | 19100 ± 19900 ng·h/mL | 7.78e-05 s⁻¹ |  |  |  |  |  |  |  |  |  |  |  |  | Measured concentration, -80°C for 14 days ([2]; spiked concentration 20 ng/mL): 21.1 ± 0.8 ng/mL; Measured concentration, Autosampler for 12 h ([2]; spiked concentration 20 ng/mL): 20.0 ± 0.2 ng/mL; Measured concentration, Room temperature for 6 h ([2]; spiked concentration 20 ng/mL): 20.6 ± 0.9 ng/mL; Measured concentration, Three freeze-thaw cycles ([2]; spiked concentration 20 ng/mL): 22.6 ± 1.0 ng/mL; Measured concentration, -80°C for 14 days ([2]; spiked concentration 200 ng/mL): 205.0 ± 4.0 ng/mL; Measured concentration, Autosampler for 12 h ([2]; spiked concentration 200 ng/mL): 203.4 ± 6.1 ng/mL; Measured concentration, Room temperature for 6 h ([2]; spiked concentration 200 ng/mL): 182.4 ± 0.6 ng/mL; Measured concentration, Three freeze-thaw cycles ([2]; spiked concentration 200 ng/mL): 219.8 ± 1.0 ng/mL; Measured concentration, -80°C for 14 days [2, 4]: 4060.3 ± 121.9 ng/mL; Measured concentration, Autosampler for 12 h [2, 4]: 4158.6 ± 15.3 ng/mL; Measured concentration, Room temperature for 6 h [2, 4]: 4360.1 ± 32.4 ng/mL; Measured concentration, Three freeze-thaw cycles [2, 4]: 4152.9 ± 34.1 ng/mL
3 | O=C(/C=C/c1ccc(O)c(O)c1)O[C@@H]1C[C@](O)(C(=O)O)C[C@@H](O)[C@H]1O [Chlorogenic acid] | 494 ± 205 ng·h/mL | 194 ± 56.4 ng/mL |  | 12 ± 10.2 min | 426 ± 139 ng·h/mL | 0.00112 s⁻¹ | 5.2 ± 0.1 ng/mL | 5.1 ± 0.1 ng/mL | 5.8 ± 0.1 ng/mL | 5.8 ± 0.1 ng/mL | 44.4 ± 0.3 ng/mL | 43.5 ± 0.7 ng/mL | 49.7 ± 2.3 ng/mL | 54.7 ± 0.4 ng/mL | 1117.1 ± 2.0 ng/mL | 1084.8 ± 13.6 ng/mL | 1079.2 ± 8.3 ng/mL | 1123.5 ± 7.3 ng/mL | T max ([1]; plasma, n = 6): 15 ± 0 min
4 | O=C(/C=C/c1ccc(O)c(O)c1)O[C@@H]1[C@H](O)C[C@@](O)(C(=O)O)C[C@H]1OC(=O)/C=C/c1ccc(O)c(O)c1 [Isochlorogenic acid C] | 405 ± 228 ng·h/mL | 101 ± 73.3 ng/mL | 24 ± 18.6 min | 14.4 ± 13.2 min | 309 ± 149 ng·h/mL | 0.0013 s⁻¹ | 5.6 ± 0.1 ng/mL | 4.6 ± 0.4 ng/mL | 5.2 ± 0.2 ng/mL | 5.9 ± 0.1 ng/mL | 43.3 ± 0.3 ng/mL | 45.1 ± 0.6 ng/mL | 48.1 ± 0.8 ng/mL | 55.3 ± 0.4 ng/mL | 1080.3 ± 37.8 ng/mL | 1047.3 ± 12.4 ng/mL | 1049.2 ± 32.0 ng/mL | 1052.4 ± 38.4 ng/mL | 
5 | O=c1c(O[C@@H]2O[C@H](CO)[C@H](O)[C@H](O)[C@H]2O)c(-c2ccc(O)c(O)c2)oc2cc(O)cc(O)c12 [Hyperoside] |  |  |  |  |  |  | 4.8 ± 0.2 ng/mL | 3.9 ± 0.1 ng/mL | 4.4 ± 0.1 ng/mL | 5.7 ± 0.1 ng/mL | 50.3 ± 1.8 ng/mL | 41.8 ± 1.4 ng/mL | 48.7 ± 1.9 ng/mL | 54.5 ± 2.1 ng/mL | 997.8 ± 19.4 ng/mL | 803.4 ± 2.5 ng/mL |  | 1110.2 ± 4.5 ng/mL | Detection in plasma over the sampling time [1]: detected only at the first few blood sampling points
6 | O=C(/C=C/c1ccc(O)c(O)c1)O[C@H]1[C@H](O)C[C@](O)(C(=O)O)C[C@H]1O [Cryptochlorogenic acid] | 431 ± 197 ng·h/mL | 89.4 ± 45.3 ng/mL | 36.6 ± 19.8 min | 414 ± 204 min | 319 ± 97.3 ng·h/mL | 3.33e-05 s⁻¹ | 5.2 ± 0.2 ng/mL | 5.0 ± 0.2 ng/mL | 5.3 ± 0.1 ng/mL | 5.9 ± 0.1 ng/mL | 46.7 ± 1.4 ng/mL | 44.5 ± 1.3 ng/mL | 49.1 ± 1.5 ng/mL | 54.1 ± 0.3 ng/mL | 1075.7 ± 52.9 ng/mL | 1069.3 ± 16.2 ng/mL | 1012.9 ± 11.1 ng/mL | 1122.8 ± 6.8 ng/mL | 
7 | COc1ccc([C@@H]2CC(=O)c3c(O)cc(O[C@@H]4O[C@H](CO[C@@H]5O[C@@H](C)[C@H](O)[C@@H](O)[C@H]5O)[C@@H](O)[C@H](O)[C@H]4O)cc3O2)cc1O [Hesperidin] |  |  |  |  |  |  |  |  |  |  |  |  |  |  |  |  |  |  | Detection in plasma over the sampling time [1]: detected only at the first few blood sampling points; Measured concentration, -80°C for 14 days ([2]; spiked concentration 1 ng/mL): 1.1 ± 0.1 ng/mL; Measured concentration, Autosampler for 12 h ([2]; spiked concentration 1 ng/mL): 1.0 ± 0.1 ng/mL; Measured concentration, Room temperature for 6 h ([2]; spiked concentration 1 ng/mL): 1.1 ± 0.1 ng/mL; Measured concentration, Three freeze-thaw cycles ([2]; spiked concentration 1 ng/mL): 1.1 ± 0.1 ng/mL; Measured concentration, -80°C for 14 days ([2]; spiked concentration 10 ng/mL): 9.5 ± 0.2 ng/mL; Measured concentration, Autosampler for 12 h ([2]; spiked concentration 10 ng/mL): 8.8 ± 0.1 ng/mL; Measured concentration, Room temperature for 6 h ([2]; spiked concentration 10 ng/mL): 10.2 ± 0.4 ng/mL; Measured concentration, Three freeze-thaw cycles ([2]; spiked concentration 10 ng/mL): 10.0 ± 0.1 ng/mL; Measured concentration, -80°C for 14 days ([2]; spiked concentration 200 ng/mL): 209.5 ± 2.3 ng/mL; Measured concentration, Autosampler for 12 h ([2]; spiked concentration 200 ng/mL): 222.7 ± 2.0 ng/mL; Measured concentration, Room temperature for 6 h ([2]; spiked concentration 200 ng/mL): 213.7 ± 2.1 ng/mL; Measured concentration, Three freeze-thaw cycles ([2]; spiked concentration 200 ng/mL): 218.3 ± 0.7 ng/mL
